Laboratory results published in patent publication EP1708692B1, “DICHLOROACETATE IN COMBINATION WITH AN INOTROPE FOR CARDIOPROTECTION” (The Governors of the University of Alberta, priority 2004, dated 2005).
Where “and” joins values, the source holds several entries; their conditions need not be identical. Identical values can stand only once. Like-named read-outs stand apart in the source and are kept apart here.

Legend:
[1] = Plasma DCA levels by HPLC, bolus and infusion protocol (Example C); assay type: in vivo, pediatric patients; details: human
Procedure: (§1) DCA (50mg/kg) or placebo was injected into the aortic root immediately prior to removing aortic cross clamp. The coded solutions were made such that a dose of 1 ml/kg provided either a DCA therapeutic level of 1mM plasma concentration of DCA, or a placebo solution. Immediately thereafter, an infusion of DCA at 25mg/kg/hr or placebo in the same volume was initiated and run for 24 hours. Based on the pharmacokinetics of DCA, this was expected to maintain plasma levels of DCA in the therapeutic range of (0.2-1mM). However, the plasma concentrations of DCA were below 1mM after the first hour interval, and that the 24 hour plasma concentrations were elevated above 1mM DCA levels at the 24 hour interval, a decision was made to modify the dosing protocol. This change in dosing protocol was approved by the Ethics Committee, but not implemented until patient number 24. All blood samples were analyzed by HPLC for DCA concentration.
(§2) DCA (100mg/kg) or placebo was injected into the aortic root immediately prior to removing aortic cross clamp. The coded solutions were made such that a dose of 1 ml/kg provided either a DCA therapeutic level of 1mM plasma concentration of DCA, or a placebo solution. Immediately thereafter, an infusion of DCA at 12.5mg/kg/hr or placebo in the same volume was initiated and run for 24 hours. Based on the pharmacokinetics of DCA, this was expected to maintain plasma levels of DCA in the therapeutic range of (0.2-1mM). All blood samples were analyzed by HPLC for DCA concentration.
Arterial blood samples were obtained from patients at the following times: • a. Immediately after the insertion of arterial line in operating room (i.e., at beginning of surgery). • b. Thirty minutes after the bolus of DCA has been given, whether or not cardiopulmonary bypass has been discontinued. • c. One hour after discontinuing cardiopulmonary bypass. • d. Six hours after discontinuing cardiopulmonary bypass • e. Twelve hours after discontinuing cardiopulmonary bypass. • f. Twenty four hours after discontinuing cardiopulmonary bypass. At the end of 24 hours, the DCA or placebo infusion was discontinued.
Blood samples were collected from indwelling arterial lines into citrate-containing tubes (0.5 ml blood samples). The samples were spun in the microfuge, the plasma separated, and frozen immediately for later analysis. All plasma samples were stored at -80 degrees centigrade, until further processing. Plasma glucose and lactate were determined using a Sigma glucose kit and a spectrophotometric assay involving lactate dehydrogenase respectively. Plasma fatty acid levels were measured using an ELISA system and WAKO free fatty acid kit.

[2] = test system: pediatric patients requiring heart surgery to connect complex congenital heart lesions; assay: Clinical outcome after single DCA bolus: Inotrope Score, ICU time, ventilator time, echocardiography (Example B); assay type: in vivo; details: 50mg/kg bolus, placebo patients 26%
Procedure: This study was a randomized, placebo-controlled, double blinded, single surgeon, study of the use of DCA in 40 high-risk pediatric patients requiring heart surgery to connect complex congenital heart lesions.
In this trial, 40 children were recruited to participate in a single surgeon study, of which 18 received DCA and 22 received placebo. The 1995 power calculations were based on separation of the CPB-1 trial of n = 40 patients.
The intervention involved DCA (50mg/kg) or placebo injected into the aortic root immediately prior to removing aortic cross clamp. The coded solution was made such that a dose of lml/kg provides the appropriate dose of DCA or placebo. Based on the pharmacokinetics of DCA, this was expected to result in plasma levels of DCA in the therapeutic range of (1mM). All blood samples were analyzed by HPLC for DCA concentration.
In both the operating room at the end of cardiopulmonary bypass and in the intensive care unit, parenteral drugs were scored on an hourly basis with 1 point allotted for each level for each bolus or infusion given within the previous hour for the first 24 hours post-operatively. Thus, at the end of 24 hours high scores indicated poorer cardiac function.

[3] = test system: pediatric patients requiring heart surgery to correct complex congenital heart lesions; assay: Clinical outcome after DCA bolus and 24 hour infusion: Inotrope Score, ICU time, ventilator time (Example C); assay type: in vivo; design: reduction of Inotrope Scores: concentration or dose not given beside the values; details: compared to placebo; for average decrease in Inotrope Score per patient: over the 24 hour period
Procedure: This study was a randomized, placebo-controlled, double blinded, single surgeon, study of the use of DCA in 51 high-risk pediatric patients requiring heart surgery to correct complex congenital heart lesions.
In this trial, 53 infants were recruited to participate in a study, of which 51 patients met inclusion criteria after parental consent. Two dosing groups resulted from the study team changing the dosing protocol after the data from the initial 10 patients were analyzed. The data from patients number 1 to number 10 was analyzed for DCA therapeutic blood levels and therapeutic effect. A recommendation by the research team was made to increase the bolus dose of DCA and to decrease the infusion dose of DCA to maintain a DCA dose range of 1mM for 24 hours. The intent was to administer the new protocol at patient number 20. The 1997 Epicore power calculations were based on separation of the study groups patients into group A of n = 20 patients and Group B of n = 31 patients
as §1, §2
In both the operating room at the end of cardiopulmonary bypass and in the intensive care unit, parenteral drugs were scored on an hourly basis with 1 point allotted for each level for each bolus or infusion given within the previous hour within the first 24 hours post-operatively. Thus at the end of 24 hours, high scores indicated poorer cardiac function.

[4] = Plasma DCA levels by HPLC after bolus, adult CABG patients (Example A); assay type: in vivo; details: human, 50 mg/kg, following infusion of 50mg/kg Na+ Dichloroacetate via cardiopulmonary bypass pump, 1 hour following administration, n=8
Procedure: (§3) DCA or saline was administered to 18 patients undergoing elective cardiac bypass grafting surgery (CABG) in a double blinded randomized manner DCA (50mg/kg in 100 ml of saline) or placebo was injected into the aortic root, immediately prior to removing aortic cross clamp. Based on the pharmacokinetics of DCA, we anticipated that this would produce a plasma concentration of approximately 1 mM. The study consisted of 8 DCA-treated patients and 10 placebo-treated patients.
(§4) The intervention involved DCA (50mg/kg) or placebo injected into the aortic root immediately prior to removing aortic cross clamp. The coded solution was made such that a dose of lml/kg provides the appropriate dose of DCA or placebo. Based on the pharmacokinetics of DCA, this was expected to result in a plasma level of DCA in the therapeutic range of (1mM). All blood samples were analyzed by HPLC for DCA concentration.
Plasma samples were processed for DCA levels using a high performance liquid chromatography (HPLC) technique that separated the DCA from other plasma constituents. In brief, 20 µl of plasma sample was injected into a Beckman Gold HPLC containing a IonoBpher 5A column (250x4.6mm LxID) and a AX Guard Column. […] The flow rate of the HPLC was set at 3.0 ml/min and the DCA eluted from the column was detected by comparing DCA elution times to acetate, monochloroacetate, and trichloroacetate standards. […]

[5] = test system: patients undergoing elective cardiac bypass grafting surgery (CABG); assay: Mortality in adult CABG study (Example A); assay type: in vivo, human; details: 50mg/kg bolus, 8 DCA-treated adult patients
Procedure: as §3, §4

patients = assay: Observed side effects of DCA in patients
[6] = Group A, 50mg/kg bolus and 25mg/kg/hour infusion
[7] = Group B, 100mg/kg bolus and 12.5mg/kg/hour infusion

## O=C(O)C(Cl)Cl [DCA, dichloroacetate]
[1]; 50 mg/kg, Example C, 24 hour interval (Group A), read-out: optimum mean level of DCA in plasma
  concentration at 24 h: 2.29 mM
[1]; 50 mg/kg, Group A protocol (50mg/kg bolus, 25mg/kg/hr infusion), 24 hour interval, initial patients, read-out: plasma concentrations of DCA
  concentration at 24 h: > 1 mM
[1]; 50 mg/kg, Group A protocol (50mg/kg bolus, 25mg/kg/hr infusion), after the first hour interval, initial patients, read-out: plasma concentrations of DCA
  concentration at 1 h: < 1 mM
[1]; 50 mg/kg, Group A, 50mg/kg bolus and 25mg/kg/hr infusion, n=9, read-out: Average DCA Plasma Levels, mM at 12 hr
  concentration at 12 h: 1.77 mM
[1]; 50 mg/kg, Group A, 50mg/kg bolus and 25mg/kg/hr infusion, n=10, read-out: Average DCA Plasma Levels, mM at 6 hr
  concentration at 6 h: 1.13 mM
[1]; 50 mg/kg, Group A, 50mg/kg bolus and 25mg/kg/hr infusion, n=11, read-out: Average DCA Plasma Levels, mM at 1 hr
  concentration at 1 h: 0.46 mM
[1]; 50 mg/kg, Group A, 50mg/kg bolus and 25mg/kg/hr infusion, n=11, read-out: Average DCA Plasma Levels, mM at 24 hr
  concentration at 24 h: 2.72 mM
[1]; 50 mg/kg, Group A, 50mg/kg bolus and 25mg/kg/hr infusion, patients with greatest degree of clinical benefits, m=5, read-out: Average Optimum Mean of DCA Plasma Levels, mM at 6 hr
  concentration at 6 h: 0.916 mM
[1]; 50 mg/kg, Group A, 50mg/kg bolus and 25mg/kg/hr infusion, patients with greatest degree of clinical benefits, m=5, read-out: Average Optimum Mean of DCA Plasma Levels, mM at 12 hr
  concentration at 12 h: 1.52 mM
[1]; 50 mg/kg, Group A, 50mg/kg bolus and 25mg/kg/hr infusion, patients with greatest degree of clinical benefits, m=6, read-out: Average Optimum Mean of DCA Plasma Levels, mM at 24 hr
  concentration at 24 h: 2.29 mM
[1]; 100 mg/kg, Example C, 1 to 6 hour period (Group B), read-out: optimum mean level of DCA in plasma
  concentration at 6 h: 1 mM
[1]; 100 mg/kg, Group B, 100mg/kg bolus and 12.5 mg/kg/hr infusion, n not given, read-out: Average Optimum Mean of DCA Plasma Levels, mM at 6 hr
  concentration at 6 h: 1 mM
[1]; 100 mg/kg, Group B, 100mg/kg bolus and 12.5 mg/kg/hr infusion, n not given, read-out: Average Optimum Mean of DCA Plasma Levels, mM at 12 hr
  concentration at 12 h: 1 mM
[1]; 100 mg/kg, Group B, 100mg/kg bolus and 12.5 mg/kg/hr infusion, n not given, read-out: Average Optimum Mean of DCA Plasma Levels, mM at 24 hr
  concentration at 24 h: 1 mM
[1]; 100 mg/kg, Group B, 100mg/kg bolus and 12.5 mg/kg/hr infusion, n=10, read-out: Average DCA Plasma Levels, mM at 24 hr
  concentration at 24 h: 2.23 mM
[1]; 100 mg/kg, Group B, 100mg/kg bolus and 12.5 mg/kg/hr infusion, n=11, read-out: Average DCA Plasma Levels, mM at 1 hr
  concentration at 1 h: 1.13 mM
[1]; 100 mg/kg, Group B, 100mg/kg bolus and 12.5 mg/kg/hr infusion, n=11, read-out: Average DCA Plasma Levels, mM at 6 hr
  concentration at 6 h: 0.894 mM
[1]; 100 mg/kg, Group B, 100mg/kg bolus and 12.5 mg/kg/hr infusion, n=11, read-out: Average DCA Plasma Levels, mM at 12 hr
  concentration at 12 h: 1.43 mM
[1]; Example C, 1 to 6 hour interval, read-out: DCA plasma level range
  concentration at 6 h: 0.229 to 2.22 mM
[1]; Example C, 12 hour interval, read-out: DCA plasma level range
  concentration at 12 h: 0.38 to 3.07 mM
[1]; Example C, 12 hour interval, read-out: optimum mean level of DCA in plasma
  concentration at 12 h: 1.52 mM
[1]; Example C, 24 hour interval, read-out: DCA plasma level range
  concentration at 24 h: 1.74 to 3.9 mM
[1]; Group A, 50mg/kg bolus and 25mg/kg/hr infusion, patients with greatest degree of clinical benefits, n not given, read-out: Average Optimum Mean of DCA Plasma Levels, mM at 1 hr
  concentration at 1 h: 1 mM
[1]; Group B, 100mg/kg bolus and 12.5 mg/kg/hr infusion, patients with greatest degree of clinical benefits, n=7, read-out: Average Optimum Mean of DCA Plasma Levels, mM at 1 hr
  concentration at 1 h: 1.01 mM
[2]
  shortening fraction (echocardiography): 35%
[3]; Group A, 50mg/kg bolus and 25mg/kg/hour infusion, 23 patients
  reduction of time in ICU: 60 h
[3]; [6]
  decrease of time in ICU: 41%
  decrease of ventilator time: 47%
  reduction of ventilator time: 46 h
[3]; Group A, by 1 hour
  reduction of Inotrope Scores: 50%
[3]; Group A, by 12 hours
  reduction of Inotrope Scores: 45%
[3]; Group A, by 24 hours
  reduction of Inotrope Scores: 38%
[3]; Group A
  average decrease in Inotrope Score per patient: 44%
[3]; Group B, 100mg/kg bolus and 12.5mg/kg/hour infusion, 24 patients
  reduction of time in ICU: 50 h
[3]; [7]
  decrease of time in ICU: 40%
  decrease of ventilator time: 23%
  reduction of ventilator time: 18 h and 19 h
[3]; Group B, by 1 hour
  reduction of Inotrope Scores: 57%
[3]; Group B, by 12 hours
  reduction of Inotrope Scores: 49%
[3]; Group B, by 24 hours
  reduction of Inotrope Scores: 45%
[3]; Group B
  average decrease in Inotrope Score per patient: 51%
[4]
  concentration at 1 h: ~1000 µM
[5]
  mortalities: no mortalities
patients; general observation in patients
  side-effects: not have significant side-effects, although some patients experience mild drowsiness
patients; previous (pilot) studies
  adverse effects of DCA: no adverse effects
